Each block holds one molecule with its values, some of them ahead of it.
Columns and labels:
[1] = target: T1, Muscle, skeletal receptor tyrosine-protein kinase (Homo sapiens) (UniProt O15146); experiment: Selectivity interaction (KinomeScan (DiscoverX)) EUB0000607a MUSK; conditions: at 10 µM
T1 sequence (whole entry): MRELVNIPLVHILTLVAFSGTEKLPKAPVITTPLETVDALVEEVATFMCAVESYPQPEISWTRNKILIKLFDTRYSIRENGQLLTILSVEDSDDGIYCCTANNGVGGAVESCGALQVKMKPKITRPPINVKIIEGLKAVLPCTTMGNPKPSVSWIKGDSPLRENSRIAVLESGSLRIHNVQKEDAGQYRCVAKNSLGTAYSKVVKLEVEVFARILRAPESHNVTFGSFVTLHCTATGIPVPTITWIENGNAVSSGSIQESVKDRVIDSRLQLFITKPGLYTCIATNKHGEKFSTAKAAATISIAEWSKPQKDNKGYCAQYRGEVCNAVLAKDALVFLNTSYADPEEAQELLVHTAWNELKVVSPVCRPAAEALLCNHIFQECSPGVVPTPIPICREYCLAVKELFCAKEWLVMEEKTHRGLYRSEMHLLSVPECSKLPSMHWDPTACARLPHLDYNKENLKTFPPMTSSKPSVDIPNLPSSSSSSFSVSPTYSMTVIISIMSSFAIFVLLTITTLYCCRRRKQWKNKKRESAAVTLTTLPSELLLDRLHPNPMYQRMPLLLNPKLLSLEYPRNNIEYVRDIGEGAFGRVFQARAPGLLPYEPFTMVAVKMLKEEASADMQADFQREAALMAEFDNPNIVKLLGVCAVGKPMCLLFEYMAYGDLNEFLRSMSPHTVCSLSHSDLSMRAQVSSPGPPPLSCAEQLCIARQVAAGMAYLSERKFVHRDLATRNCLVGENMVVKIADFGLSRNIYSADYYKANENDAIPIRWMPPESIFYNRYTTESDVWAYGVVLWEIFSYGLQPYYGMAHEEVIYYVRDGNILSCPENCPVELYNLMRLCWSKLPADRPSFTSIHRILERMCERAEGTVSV

[2] = target: T2, Tyrosine-protein kinase JAK3 (Homo sapiens, UniProt P52333); experiment: Selectivity interaction (Enyzmatic assay) EUB0000601a JAK3
T2 sequence (P52333 whole entry): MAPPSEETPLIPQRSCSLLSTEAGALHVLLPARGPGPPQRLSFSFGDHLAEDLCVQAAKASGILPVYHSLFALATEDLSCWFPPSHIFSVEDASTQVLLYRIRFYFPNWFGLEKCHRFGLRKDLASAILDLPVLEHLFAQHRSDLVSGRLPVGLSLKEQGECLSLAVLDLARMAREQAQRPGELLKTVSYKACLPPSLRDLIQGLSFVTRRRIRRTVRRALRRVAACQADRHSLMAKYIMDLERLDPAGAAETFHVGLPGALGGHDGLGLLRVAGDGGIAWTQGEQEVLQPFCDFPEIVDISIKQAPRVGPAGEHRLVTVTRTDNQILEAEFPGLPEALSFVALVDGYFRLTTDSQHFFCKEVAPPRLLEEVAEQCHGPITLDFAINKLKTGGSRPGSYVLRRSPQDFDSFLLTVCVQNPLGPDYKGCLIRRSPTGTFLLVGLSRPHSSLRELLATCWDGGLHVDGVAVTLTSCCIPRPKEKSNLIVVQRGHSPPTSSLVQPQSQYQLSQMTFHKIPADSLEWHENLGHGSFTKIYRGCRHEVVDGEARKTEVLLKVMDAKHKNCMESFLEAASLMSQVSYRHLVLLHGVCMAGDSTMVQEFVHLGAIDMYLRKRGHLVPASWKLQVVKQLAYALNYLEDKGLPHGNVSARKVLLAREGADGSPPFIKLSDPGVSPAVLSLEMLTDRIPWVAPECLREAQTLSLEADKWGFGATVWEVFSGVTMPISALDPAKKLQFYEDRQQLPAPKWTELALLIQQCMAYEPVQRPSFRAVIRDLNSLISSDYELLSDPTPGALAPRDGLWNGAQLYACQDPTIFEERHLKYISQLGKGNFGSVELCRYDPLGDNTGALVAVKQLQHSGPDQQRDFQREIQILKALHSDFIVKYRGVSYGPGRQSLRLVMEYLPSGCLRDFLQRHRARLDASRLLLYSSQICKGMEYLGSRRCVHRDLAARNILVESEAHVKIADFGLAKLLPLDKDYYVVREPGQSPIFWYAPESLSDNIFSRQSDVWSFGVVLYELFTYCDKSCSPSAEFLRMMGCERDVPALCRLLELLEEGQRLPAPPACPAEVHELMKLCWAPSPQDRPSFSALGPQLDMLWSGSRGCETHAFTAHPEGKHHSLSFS

[3] = target: Serine/threonine-protein kinase OSR1 (Homo sapiens) (UniProt O95747); experiment: Selectivity interaction (KinomeScan (DiscoverX)) EUB0000655a OXSR1; conditions: at 10 µM
Sequence of Serine/threonine-protein kinase OSR1 (Homo sapiens) (O95747 2-527 limits assumed): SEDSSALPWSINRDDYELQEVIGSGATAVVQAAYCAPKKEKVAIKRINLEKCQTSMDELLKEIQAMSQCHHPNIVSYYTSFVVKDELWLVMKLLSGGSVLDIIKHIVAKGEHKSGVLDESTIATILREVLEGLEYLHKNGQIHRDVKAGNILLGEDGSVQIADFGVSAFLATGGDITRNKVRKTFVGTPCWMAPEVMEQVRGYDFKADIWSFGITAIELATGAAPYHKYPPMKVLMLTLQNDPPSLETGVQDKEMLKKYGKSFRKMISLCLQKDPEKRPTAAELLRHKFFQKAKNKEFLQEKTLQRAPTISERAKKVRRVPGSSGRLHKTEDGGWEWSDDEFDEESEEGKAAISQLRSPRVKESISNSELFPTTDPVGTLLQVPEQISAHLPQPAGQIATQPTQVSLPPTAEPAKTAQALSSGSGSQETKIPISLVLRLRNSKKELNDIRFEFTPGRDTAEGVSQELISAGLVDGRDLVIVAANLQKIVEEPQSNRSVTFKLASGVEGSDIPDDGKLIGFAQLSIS

[4] = target: Mitogen-activated protein kinase 9 (Homo sapiens, UniProt P45984); experiment: Selectivity interaction (KinomeScan (DiscoverX)) EUB0000045b MAPK9
Sequence of Mitogen-activated protein kinase 9 (P45984 whole entry, looked up): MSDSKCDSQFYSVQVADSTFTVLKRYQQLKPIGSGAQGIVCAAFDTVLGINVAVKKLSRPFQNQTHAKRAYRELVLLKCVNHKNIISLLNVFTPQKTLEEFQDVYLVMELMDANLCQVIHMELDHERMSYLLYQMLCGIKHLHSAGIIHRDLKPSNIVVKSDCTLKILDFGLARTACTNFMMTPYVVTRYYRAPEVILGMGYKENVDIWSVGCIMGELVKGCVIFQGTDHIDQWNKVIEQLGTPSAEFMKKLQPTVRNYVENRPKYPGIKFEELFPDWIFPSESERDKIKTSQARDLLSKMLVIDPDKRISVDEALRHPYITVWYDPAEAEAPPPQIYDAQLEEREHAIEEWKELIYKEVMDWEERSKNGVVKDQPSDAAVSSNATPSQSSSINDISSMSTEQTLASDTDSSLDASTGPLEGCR

[5] = target: Histamine H4 receptor (Homo sapiens) (UniProt Q9H3N8); experiment: Selectivity interaction (GPCR panel (PDSP screen)) EUB0001079a HRH4; conditions: at 10 µM
[6] = target: Casein kinase I isoform alpha (Homo sapiens, UniProt P48729); experiment: Selectivity interaction (KinomeScan (DiscoverX)) EUB0001619a CSNK1A1; conditions: at 1 µM
Sequence of Casein kinase I isoform alpha (P48729 2-337 limits assumed): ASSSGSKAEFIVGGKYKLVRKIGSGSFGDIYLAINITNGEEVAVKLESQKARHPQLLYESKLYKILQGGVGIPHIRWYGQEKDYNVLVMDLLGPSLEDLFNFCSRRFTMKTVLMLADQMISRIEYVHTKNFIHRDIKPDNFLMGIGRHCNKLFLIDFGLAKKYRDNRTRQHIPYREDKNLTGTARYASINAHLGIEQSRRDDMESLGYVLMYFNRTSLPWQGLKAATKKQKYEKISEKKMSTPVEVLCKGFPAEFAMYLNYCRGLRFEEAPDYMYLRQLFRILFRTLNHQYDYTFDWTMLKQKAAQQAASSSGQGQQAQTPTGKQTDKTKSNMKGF

Structure (SMILES): CNC(=O)Nc1ccc(-c2nc(N3CC4CCC(C3)O4)c3cnn(C4CCC5(CC4)OCCO5)c3n2)cc1
% of control [1]: 92%

IC50 [2]: > 10 µM
Structure (SMILES): CCc1cc(Nc2nccc(-c3c(-c4ccc(OC)c(C(=O)Nc5c(F)cccc5F)c4)nc4ccccn34)n2)c(OC)cc1N1CCC(N2CCN(S(C)(=O)=O)CC2)CC1

Structure (SMILES): CN(C)CCOc1ccc(-c2nc(-c3ccncc3)c(-c3ccc4c(c3)CC/C4=N\O)[nH]2)cc1
% of control [3]: 100%

Structure (SMILES): C=CC(=O)Nc1cc(-n2c(=O)ccc3cnc4ccc(-c5ccc(NS(C)(=O)=O)cc5)cc4c32)ccc1C
% of control ([4]; at 1 µM): 100%
% of control ([4]; at 10 µM): 24%

Structure (SMILES): Nc1cnc(N2CCc3cc(S(=O)(=O)Nc4c(F)cc(Cl)cc4F)cc(N4CCCC4=O)c32)nc1 [TP-020n]
% of inhibition [5]: -0.37%

Structure (SMILES): N#Cc1cccc(-c2c[nH]c3ncnc(N4CCOCC4)c23)c1
% of control [6]: 100%

— ChEMBL document CHEMBL5465560, “Selectivity Literature for EUbOPEN Chemogenomic Library” (2024)
